Tests used:
[1] = target: Cannabinoid receptor 1 (Homo sapiens, UniProt P21554); assay type: functional, cell-based
[2] = target: T1, Progesterone receptor (Homo sapiens, UniProt P06401); assay type: functional
T1 sequence (P06401 whole entry): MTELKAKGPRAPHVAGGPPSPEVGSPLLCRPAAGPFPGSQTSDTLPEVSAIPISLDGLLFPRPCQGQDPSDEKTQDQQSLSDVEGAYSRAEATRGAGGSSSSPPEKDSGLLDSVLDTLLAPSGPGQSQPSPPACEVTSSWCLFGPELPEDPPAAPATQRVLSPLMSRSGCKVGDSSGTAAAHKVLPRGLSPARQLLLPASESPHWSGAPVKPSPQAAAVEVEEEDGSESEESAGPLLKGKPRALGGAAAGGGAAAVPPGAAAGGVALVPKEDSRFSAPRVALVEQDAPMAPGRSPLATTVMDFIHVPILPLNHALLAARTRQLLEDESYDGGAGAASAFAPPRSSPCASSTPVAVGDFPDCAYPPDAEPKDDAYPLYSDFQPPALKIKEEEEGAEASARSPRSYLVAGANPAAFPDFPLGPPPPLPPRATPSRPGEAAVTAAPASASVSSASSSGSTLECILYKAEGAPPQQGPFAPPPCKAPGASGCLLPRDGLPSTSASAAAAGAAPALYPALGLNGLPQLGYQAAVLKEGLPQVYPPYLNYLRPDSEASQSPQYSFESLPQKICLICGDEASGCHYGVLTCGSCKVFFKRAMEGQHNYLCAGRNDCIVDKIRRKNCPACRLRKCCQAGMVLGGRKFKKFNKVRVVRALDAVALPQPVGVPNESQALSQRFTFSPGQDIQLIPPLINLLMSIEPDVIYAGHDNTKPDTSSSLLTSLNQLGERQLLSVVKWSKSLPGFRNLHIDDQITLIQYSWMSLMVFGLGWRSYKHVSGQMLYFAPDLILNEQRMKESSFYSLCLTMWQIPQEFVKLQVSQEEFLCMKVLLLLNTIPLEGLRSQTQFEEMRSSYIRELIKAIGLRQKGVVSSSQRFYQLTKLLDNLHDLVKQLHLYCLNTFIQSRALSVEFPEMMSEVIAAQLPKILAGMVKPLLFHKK

[3] = target: Mu-type opioid receptor (Homo sapiens, UniProt P35372); assay: biochemical; assay type: functional
[4] = target: T2, Alpha-1A adrenergic receptor (Homo sapiens, UniProt P35348); assay type: functional, cell-based
T2 sequence (P35348 whole entry): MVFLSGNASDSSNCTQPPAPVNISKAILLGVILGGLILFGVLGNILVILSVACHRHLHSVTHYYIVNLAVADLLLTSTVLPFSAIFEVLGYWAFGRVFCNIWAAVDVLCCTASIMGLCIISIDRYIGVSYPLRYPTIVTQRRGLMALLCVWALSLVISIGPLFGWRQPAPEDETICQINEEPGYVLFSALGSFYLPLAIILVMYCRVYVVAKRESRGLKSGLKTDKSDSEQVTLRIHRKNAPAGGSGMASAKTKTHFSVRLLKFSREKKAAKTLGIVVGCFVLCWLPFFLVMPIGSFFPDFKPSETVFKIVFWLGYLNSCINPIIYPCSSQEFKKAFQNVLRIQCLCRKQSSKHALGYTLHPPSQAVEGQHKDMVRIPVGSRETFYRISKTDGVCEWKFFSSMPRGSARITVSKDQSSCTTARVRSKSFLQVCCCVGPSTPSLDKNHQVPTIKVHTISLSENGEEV

[5] = target: T3, Muscarinic acetylcholine receptor M2 (Homo sapiens, UniProt P08172); assay type: functional, cell-based
T3 sequence (P08172 whole entry): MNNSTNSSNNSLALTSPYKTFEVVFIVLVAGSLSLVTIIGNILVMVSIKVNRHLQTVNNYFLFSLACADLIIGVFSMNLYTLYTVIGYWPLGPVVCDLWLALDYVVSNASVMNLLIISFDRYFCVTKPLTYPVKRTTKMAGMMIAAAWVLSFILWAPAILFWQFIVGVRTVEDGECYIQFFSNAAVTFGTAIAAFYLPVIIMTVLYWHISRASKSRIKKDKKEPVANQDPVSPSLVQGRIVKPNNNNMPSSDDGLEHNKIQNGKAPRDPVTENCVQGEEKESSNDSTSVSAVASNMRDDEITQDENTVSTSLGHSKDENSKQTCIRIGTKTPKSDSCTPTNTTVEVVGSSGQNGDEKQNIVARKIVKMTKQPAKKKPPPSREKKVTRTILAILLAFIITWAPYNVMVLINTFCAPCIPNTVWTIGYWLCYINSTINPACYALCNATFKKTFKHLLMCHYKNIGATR

[6] = target: T2, Alpha-1A adrenergic receptor
[7] = target: Beta-2 adrenergic receptor (Homo sapiens, UniProt P07550); assay type: functional, cell-based
[8] = target: Voltage-dependent L-type calcium channel subunit alpha-1C (Rattus norvegicus, UniProt P22002); assay type: functional
[9] = target: Vasopressin V1a receptor (Homo sapiens, UniProt P37288)
[10] = target: Acetylcholinesterase (Homo sapiens, UniProt P22303); assay type: functional
[11] = target: T2, Alpha-1A adrenergic receptor; assay type: functional, cell-based; remark: listed apart in the source
[12] = target: T4, 5-hydroxytryptamine receptor 1A (Homo sapiens, UniProt P08908)
T4 sequence (P08908 whole entry): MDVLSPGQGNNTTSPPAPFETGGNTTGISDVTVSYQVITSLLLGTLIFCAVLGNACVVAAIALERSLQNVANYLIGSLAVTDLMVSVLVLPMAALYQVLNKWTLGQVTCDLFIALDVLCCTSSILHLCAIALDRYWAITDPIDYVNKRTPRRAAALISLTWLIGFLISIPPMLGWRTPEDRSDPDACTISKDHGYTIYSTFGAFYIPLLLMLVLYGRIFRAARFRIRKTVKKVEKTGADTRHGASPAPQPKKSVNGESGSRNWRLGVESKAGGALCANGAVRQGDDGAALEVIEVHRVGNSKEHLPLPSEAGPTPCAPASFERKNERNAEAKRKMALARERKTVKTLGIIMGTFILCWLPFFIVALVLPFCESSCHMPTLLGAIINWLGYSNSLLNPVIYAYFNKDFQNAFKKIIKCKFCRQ
Also: assay procedure not described here.

Chain of Beta-2 adrenergic receptor (P07550 whole entry): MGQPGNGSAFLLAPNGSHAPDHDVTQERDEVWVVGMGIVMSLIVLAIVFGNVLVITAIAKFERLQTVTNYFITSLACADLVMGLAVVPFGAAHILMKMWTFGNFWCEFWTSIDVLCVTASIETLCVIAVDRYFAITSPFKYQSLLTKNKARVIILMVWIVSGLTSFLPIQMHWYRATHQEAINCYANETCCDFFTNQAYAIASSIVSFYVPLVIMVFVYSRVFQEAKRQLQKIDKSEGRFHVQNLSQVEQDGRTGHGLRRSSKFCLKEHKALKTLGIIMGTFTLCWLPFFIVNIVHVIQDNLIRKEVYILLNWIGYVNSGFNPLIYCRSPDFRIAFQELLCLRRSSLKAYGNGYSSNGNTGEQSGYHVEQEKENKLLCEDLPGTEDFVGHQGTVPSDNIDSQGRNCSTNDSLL
Chain of Vasopressin V1a receptor (P37288 whole entry): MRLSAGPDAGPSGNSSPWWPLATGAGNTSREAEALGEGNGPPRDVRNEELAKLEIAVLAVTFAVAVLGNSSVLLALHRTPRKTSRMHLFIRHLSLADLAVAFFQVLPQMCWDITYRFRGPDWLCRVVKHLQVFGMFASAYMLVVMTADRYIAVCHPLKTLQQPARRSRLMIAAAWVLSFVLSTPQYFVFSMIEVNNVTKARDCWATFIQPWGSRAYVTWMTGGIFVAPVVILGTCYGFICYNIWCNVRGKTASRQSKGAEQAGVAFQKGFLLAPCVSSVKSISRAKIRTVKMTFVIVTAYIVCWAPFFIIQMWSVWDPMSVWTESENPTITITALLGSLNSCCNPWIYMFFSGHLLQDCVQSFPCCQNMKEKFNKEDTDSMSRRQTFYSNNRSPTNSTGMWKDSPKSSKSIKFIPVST
Chain of Mu-type opioid receptor (P35372 whole entry): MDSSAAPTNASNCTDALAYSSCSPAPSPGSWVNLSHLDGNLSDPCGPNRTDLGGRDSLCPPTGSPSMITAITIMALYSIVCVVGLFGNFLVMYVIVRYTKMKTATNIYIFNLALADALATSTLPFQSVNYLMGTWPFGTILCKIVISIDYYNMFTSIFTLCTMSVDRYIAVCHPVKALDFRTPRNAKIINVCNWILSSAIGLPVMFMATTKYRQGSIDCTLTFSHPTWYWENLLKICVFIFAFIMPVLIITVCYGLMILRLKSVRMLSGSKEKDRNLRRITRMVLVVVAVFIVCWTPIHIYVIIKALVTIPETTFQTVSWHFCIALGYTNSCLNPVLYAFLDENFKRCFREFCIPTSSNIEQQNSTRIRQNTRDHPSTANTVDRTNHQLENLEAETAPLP
Chain of Voltage-dependent L-type calcium channel subunit alpha-1C (P22002 whole entry): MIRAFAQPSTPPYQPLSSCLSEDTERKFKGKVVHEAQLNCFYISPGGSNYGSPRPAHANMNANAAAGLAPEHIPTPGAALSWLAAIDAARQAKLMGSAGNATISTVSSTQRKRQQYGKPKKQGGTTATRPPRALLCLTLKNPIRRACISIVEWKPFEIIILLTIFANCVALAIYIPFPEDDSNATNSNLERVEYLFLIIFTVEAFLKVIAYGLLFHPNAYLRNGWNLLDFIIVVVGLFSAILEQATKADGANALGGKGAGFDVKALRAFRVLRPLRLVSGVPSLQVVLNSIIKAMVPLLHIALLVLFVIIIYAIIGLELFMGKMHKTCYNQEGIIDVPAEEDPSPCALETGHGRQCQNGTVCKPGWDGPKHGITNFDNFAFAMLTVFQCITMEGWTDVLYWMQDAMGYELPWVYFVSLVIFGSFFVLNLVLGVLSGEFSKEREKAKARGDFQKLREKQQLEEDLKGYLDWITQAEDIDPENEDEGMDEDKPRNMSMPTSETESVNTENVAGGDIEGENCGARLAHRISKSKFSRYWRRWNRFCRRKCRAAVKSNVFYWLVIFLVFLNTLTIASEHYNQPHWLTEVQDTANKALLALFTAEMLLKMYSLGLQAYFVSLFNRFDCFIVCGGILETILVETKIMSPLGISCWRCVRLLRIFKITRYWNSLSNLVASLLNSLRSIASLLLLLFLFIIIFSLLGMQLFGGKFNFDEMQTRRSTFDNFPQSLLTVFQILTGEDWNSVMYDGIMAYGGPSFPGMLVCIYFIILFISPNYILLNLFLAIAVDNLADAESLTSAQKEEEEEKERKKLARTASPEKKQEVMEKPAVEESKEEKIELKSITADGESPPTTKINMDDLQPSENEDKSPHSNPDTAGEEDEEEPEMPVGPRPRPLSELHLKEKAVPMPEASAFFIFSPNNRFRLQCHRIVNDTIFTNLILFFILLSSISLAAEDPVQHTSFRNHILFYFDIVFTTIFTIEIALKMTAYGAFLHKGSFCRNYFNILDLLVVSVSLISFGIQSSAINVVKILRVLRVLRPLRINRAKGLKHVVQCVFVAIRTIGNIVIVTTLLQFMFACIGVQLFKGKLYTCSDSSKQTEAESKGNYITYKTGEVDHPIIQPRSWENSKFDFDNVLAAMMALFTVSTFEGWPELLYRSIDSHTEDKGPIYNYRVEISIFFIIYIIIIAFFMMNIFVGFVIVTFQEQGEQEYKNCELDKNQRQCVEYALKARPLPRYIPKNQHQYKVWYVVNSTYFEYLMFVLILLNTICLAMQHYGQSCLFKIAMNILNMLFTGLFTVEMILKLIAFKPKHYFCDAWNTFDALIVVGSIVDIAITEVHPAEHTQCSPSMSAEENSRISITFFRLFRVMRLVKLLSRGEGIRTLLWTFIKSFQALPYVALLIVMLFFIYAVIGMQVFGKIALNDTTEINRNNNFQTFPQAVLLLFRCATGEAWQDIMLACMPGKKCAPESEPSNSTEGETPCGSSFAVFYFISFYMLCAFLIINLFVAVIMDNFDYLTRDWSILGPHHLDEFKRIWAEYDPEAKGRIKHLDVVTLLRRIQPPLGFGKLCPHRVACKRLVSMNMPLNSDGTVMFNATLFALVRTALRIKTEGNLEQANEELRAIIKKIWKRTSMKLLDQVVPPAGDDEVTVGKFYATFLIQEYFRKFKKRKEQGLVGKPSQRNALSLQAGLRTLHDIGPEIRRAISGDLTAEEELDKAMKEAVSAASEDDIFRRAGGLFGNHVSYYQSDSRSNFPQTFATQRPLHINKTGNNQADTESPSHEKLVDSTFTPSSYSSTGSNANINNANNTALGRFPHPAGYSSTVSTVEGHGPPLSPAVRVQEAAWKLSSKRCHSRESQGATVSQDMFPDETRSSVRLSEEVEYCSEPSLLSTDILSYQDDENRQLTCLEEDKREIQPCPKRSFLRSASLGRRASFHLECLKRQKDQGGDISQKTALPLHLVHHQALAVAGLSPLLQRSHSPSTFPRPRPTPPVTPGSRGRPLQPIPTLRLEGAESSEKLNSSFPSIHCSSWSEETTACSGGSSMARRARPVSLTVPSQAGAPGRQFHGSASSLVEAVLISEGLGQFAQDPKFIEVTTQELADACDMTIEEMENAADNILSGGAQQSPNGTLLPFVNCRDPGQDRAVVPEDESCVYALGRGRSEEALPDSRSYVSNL
Chain of Cannabinoid receptor 1 (P21554 whole entry): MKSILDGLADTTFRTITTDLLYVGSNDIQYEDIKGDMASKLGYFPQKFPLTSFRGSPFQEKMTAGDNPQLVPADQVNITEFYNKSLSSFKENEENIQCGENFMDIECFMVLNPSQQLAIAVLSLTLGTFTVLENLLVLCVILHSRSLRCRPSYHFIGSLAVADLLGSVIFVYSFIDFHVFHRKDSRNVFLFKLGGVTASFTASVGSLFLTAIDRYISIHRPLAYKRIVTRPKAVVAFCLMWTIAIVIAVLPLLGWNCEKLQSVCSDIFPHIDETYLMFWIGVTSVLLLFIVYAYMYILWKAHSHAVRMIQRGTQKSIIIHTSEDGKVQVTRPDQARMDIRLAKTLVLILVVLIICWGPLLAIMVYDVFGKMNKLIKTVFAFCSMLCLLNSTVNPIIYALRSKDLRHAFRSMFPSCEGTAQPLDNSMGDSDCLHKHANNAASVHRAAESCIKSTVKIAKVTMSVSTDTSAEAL
Chain of Acetylcholinesterase (P22303 whole entry): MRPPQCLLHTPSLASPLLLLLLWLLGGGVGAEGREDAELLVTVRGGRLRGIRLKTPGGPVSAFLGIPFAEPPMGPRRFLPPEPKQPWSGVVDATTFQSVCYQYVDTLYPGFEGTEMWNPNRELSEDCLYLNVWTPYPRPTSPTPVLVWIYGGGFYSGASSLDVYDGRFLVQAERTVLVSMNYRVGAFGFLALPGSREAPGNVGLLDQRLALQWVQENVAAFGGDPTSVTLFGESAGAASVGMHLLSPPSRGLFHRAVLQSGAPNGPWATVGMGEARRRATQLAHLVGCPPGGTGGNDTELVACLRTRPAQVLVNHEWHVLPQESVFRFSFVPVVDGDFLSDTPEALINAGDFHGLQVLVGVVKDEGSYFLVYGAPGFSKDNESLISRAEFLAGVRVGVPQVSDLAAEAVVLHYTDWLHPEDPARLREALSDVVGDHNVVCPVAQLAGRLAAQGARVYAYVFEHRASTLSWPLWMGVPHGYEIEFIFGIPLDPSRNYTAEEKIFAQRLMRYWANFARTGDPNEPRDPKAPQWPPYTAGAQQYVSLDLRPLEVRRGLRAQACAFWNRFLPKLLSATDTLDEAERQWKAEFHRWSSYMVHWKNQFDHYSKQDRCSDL

Row | SMILES | AC50 [1] | AC50 [2] | AC50 [3] | AC50 [4] | AC50 [5] | AC50 [6] | AC50 [7] | AC50 [8] | AC50 [9] | AC50 [10] | AC50 [11] | AC50 [12]
1 | Cc1cc(C(C)(C)C)cc(C)c1CC1=NCCN1 [XYLOMETAZOLINE] | > 30 µM | > 30 µM | > 30 µM | 0.0003 µM | 12.1 µM | 1.27 µM | > 30 µM | > 30 µM | > 30 µM |  |  | 
2 | CCOC(=O)c1cncn1[C@H](C)c1ccccc1 [ETOMIDATE] | > 30 µM | > 10 µM |  |  | > 10 µM | > 10 µM | > 30 µM | > 10 µM | > 10 µM |  |  | 
3 | CCC(=O)O[C@]1(C(=O)SCF)[C@H](C)C[C@H]2[C@@H]3C[C@H](F)C4=CC(=O)C=C[C@]4(C)[C@@]3(F)[C@@H](O)C[C@@]21C [FLUTICASONE PROPIONATE] | > 30 µM |  | > 30 µM | > 30 µM | > 30 µM | > 10 µM | > 30 µM | > 30 µM | > 30 µM | > 30 µM | > 30 µM | > 30 µM
4 | CC(CCc1ccc(O)cc1)NCCc1ccc(O)c(O)c1 (stereo not given) [DOBUTAMINE] | > 30 µM | > 30 µM | > 30 µM |  | > 30 µM | 0.255 µM | > 30 µM | > 30 µM | > 30 µM |  |  | 

From ChEMBL document CHEMBL5291721, “A preclinical secondary pharmacology resource illuminates target-adverse drug reaction associations of marketed drugs” (Nat Commun, 2023)
